Results from article PMC11901561, “Free Radical Scavenging Activity and Inhibition of Enzyme-Catalyzed Oxidation by trans-aryl-Palladium Complexes” (Molecules, 2025).
Where two headings read alike, the source gives them in different places.

Legend:
[1] = set-up: method as in earlier work; conditions: values reported in the literature ref 60; read-out: EC50 ABTS, literature values; cited from earlier work
[2] = cited from earlier work
[3] = ABTS radical scavenging test (spectrophotometric, 734 nm); conditions: concentration scavenging 50% of ABTS•+; MeOH, 30 min; mean ± SD
Protocol: (§1) Radical scavenging capacity, as an indicator of the antioxidant capacity of compounds against 1,1-diphenyl-2-picrylhydrazyl (DPPH) free radicals and 2,2-azinobis (3-ethyl- enzothiazoline-6-sulfonic acid), ABTS•+ radical cations, was determined using a spectrophotometric assay. Antiradical capacity analysis was performed either on pure MeOH for ABTS or the mixture of MeOH/distilled water (90:10 v/v) for DPPH. For both ABTS and DPPH assays, the stock solutions of complexes were prepared in DMSO. Quercetin was used as an antioxidant standard in the DPPH and ABTS•+ scavenging tests. EC50 is defined as the concentration of compound (µM) required to scavenge 50% of ABTS•+ or DPPH radicals. EC50 values were estimated using nonlinear regression. A lower EC50 value indicates higher antiradical activity.
The ABTS assay was based on the method described by Re et al.. For the generation of ABTS•+ radicals, sodium persulfate (2.45 mM) aqueous solution was mixed with ABTS (7 mM) and incubated overnight in the dark to obtain a dark colored solution. The stock solution of ABTS•+ was then diluted by adding pure methanol (100%) to obtain an absorbance of 0.70 (±0.02) at 734 nm at 30 °C. An aliquot of 0.02 mL of tested compound was added to 1.98 mL of ABTS•+, and the decrease in absorbance was monitored at 734 nm after 30 min [80]. During this reaction, the blue green ABTS radical cation is converted back into its colorless neutral form in the presence of the potential antioxidant molecule. A control consisted of 0.02 mL of DMSO in 1.98 mL of ABTS•+ solution. The reducing capacity was determined according to the following formula:% inhibition = (A control − A Sample) × 100/A Control (1)
(§2) Results were expressed as mean values ± standard deviation (SD). All measurements were replicated three times. EC50 values were calculated with GraphPad Prism 6.0 (GraphPad Software, San Diego, CA, USA) under the application of the function “log (inhibitor) versus normalized response-variable slope” after converting the concentrations into their decimal logarithm. The results were analyzed using Student’s test and a two-way analysis of variance (ANOVA), and a multiple comparison of all data was performed using Tukey’s multiple comparisons test. p < 0.0001 was considered significant.

[4] = target: T1, horseradish peroxidase (HRP) (Armoracia rusticana, UniProt P00433); assay: biochemical; type: biochemical
T1 sequence (P00433 31-338 limits assumed): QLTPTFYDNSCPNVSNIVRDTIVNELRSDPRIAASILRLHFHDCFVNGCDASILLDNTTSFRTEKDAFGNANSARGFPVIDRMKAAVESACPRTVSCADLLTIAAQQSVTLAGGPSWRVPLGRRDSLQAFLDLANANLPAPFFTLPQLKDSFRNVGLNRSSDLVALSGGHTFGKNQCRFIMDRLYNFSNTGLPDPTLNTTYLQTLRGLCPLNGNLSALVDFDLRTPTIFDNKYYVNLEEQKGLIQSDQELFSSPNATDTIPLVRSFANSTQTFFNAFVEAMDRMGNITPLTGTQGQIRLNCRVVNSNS
Protocol: To investigate the effect of selected palladium (II)-based complexes on the peroxidase (HRP)-catalyzed oxidation of the chemiluminescent probe (L-012), in the presence of hydrogen peroxide (H2O2), the chemiluminescence technique was used. Briefly, plate-reader-based luminescence measurements were performed in white 96-well plates using a Fluoroskan Ascent FL microplate reader (Thermo Labsystems, Vantaa, Finland), with the temperature set at 37 °C. To 5 µL of a stock solution of HRP (1 mg/mL) in phosphate buffer (pH = 7.5) per well, we successively added 10 µL of L-012 (aqueous solution, 0.84 mmoL) and 2 µL of tested compound in 163 µL of buffer solution. The reaction was triggered by adding 20 µL hydrogen peroxide (0.19 µM) to reach the final volume of 200 µL. The light emission, produced from oxidation of L-012 by HRP/H2O2 system, in the presence or absence of the tested palladium complex, was recorded in kinetic mode for 30 min. Inhibition of the emitted light due to tested complexes was associated with higher activity. The following formula was applied to calculate the inhibiting activity of complexes towards the oxidation of L-012 catalyzed by the HRP/H2O2 system:% inhibition = (L control − L Sample) x 100/L Control
as §2

[5] = Antiradical efficiency (kinetic study via DPPH assay)
Protocol: The reaction between potential antioxidants and the oxidized substrate requires a steady state which will depend on several parameters, such as the reaction time. The time needed to reach the steady state, at the concentration corresponding to EC50, is more and more frequently used and can be defined as TEC50. In brief, TEC50 was determined by plotting the recorded absorbance during the period for the EC50 concentration for the considered antioxidant compound. […] The antiradical efficiency of compounds and their classification are considered according to the work of Sanchez-Moreno [69].

[6] = DPPH radical scavenging test (spectrophotometric, 517 nm)
Protocol: as §1, with “EC50 is defined as the concentration of compound (µM) required to scavenge 50% of ABTS•+ or DPPH radicals.” left out
The DPPH assay was performed according to the method developed by Brand-Williams et al. slightly modified. A solution of 1 mM DPPH in 90% (v/v) methanol was stirred for 40 min. The absorbance of the solution was adjusted to 0.650 ± 0.020 at 517 nm using fresh 90% (v/v) methanol. Then, 0.02 mL of quercetin taken as a standard or sample was mixed with 1.98 mL of DPPH solution and incubated for 30 min in the dark covered with aluminum foil. When reacting with an antioxidant, the DPPH• radical is converted into DPPH, and its color changes from purple to yellow. The antioxidant effect may be easily evaluated by observing the decrease in visible absorption. The absorbance decrease was monitored at 517 nm after 30 min of incubation with a Hewlett Packard 8453 spectrophotometer. The control consisted of 0.02 mL of DMSO in 1.98 mL of DPPH solution. A similar formula (Equation (1)) was applied to determine the DPPH radical scavenging activity.
as §2

O=c1c(O)c(-c2ccc(O)c(O)c2)oc2cc(O)cc(O)c12 [Qrcn, Quercetin, reference compound]
EC50 [1]: ~15 µM
EC50 (g antioxidant per Kg of DPPH), literature value [2]: 84 ± 6 g/kg
EC50 [3]: 5.56 ± 0.97 µM
Effect on chemiluminescence at lowest concentrations ([4]; 1, 5, and 10 µM, HRP-H2O2/L-012): weak effect
EC50 ([4]; HRP-H2O2/L-012 system, pH 7.5, 37 °C, 30 min, read-out: EC50 chemiluminescence assay): 7.06 ± 2.56 µM
AE (antiradical efficiency) ([5]; AE = 1/EC50.TEC50, DPPH): 0.1873 ×10^−3
Classification of antiradical efficiency ([5]; according to Sanchez-Moreno, from AE value): Low
TEC50 ([5]; time needed to reach the steady state at the EC50 concentration, DPPH): 61 min
EC50 (g Antioxidant/kg DPPH°) ([6]; EC50 expressed as weight of antioxidant per kg of DPPH radical): 87.98 ± 15 g Antioxidant/kg DPPH°
EC50 ([6]; concentration scavenging 50% of DPPH, 90% MeOH, 30 min, mean ± SD): 5.79 ± 1 µM
